Experimental data published in patent publication US9399145B2, “Nanoscale neuromodulating platform for retina neuron activation apparatus and method” (The Board of Trustees of the University of Illinois, priority 2005, dated 2016).

How the values were obtained:
[1] = system: GABAARs of retinal ganglion cells; assay: Whole-cell patch clamp of isolated retinal ganglion cells; assay type: cell-based, rat; conditions: for peak amplitude of direct response relative to response to 200 μM GABA: alone
Procedure: To test whether native neuronal GABAARs respond to MPC088, retinal ganglion cells (RGCs), a cell type known to abundantly express GABAARs (Ishida et al. (1988); Fischer et al. (1998); Wässle et al. (1998); Rotolo et al. (2003)), were examined. […] The cis-dominant preparation was obtained by pre-treating trans-dominant MPC088 with UV light for 5 min.
Inset: Aggregate data for direct activation by MPC088.
Experiments were conducted on enzymatically dissociated ganglion cells obtained from adult Sprague-Dawley rats (male and female, 6-16 weeks of age) (Charles River Laboratories, Wilmington, Mass.). Procedures for euthanasia, isolation of the retina, and the dissociation of retinal cells were as described previously (Ramsey et al. (2007) except that the period of retinal cell dissociation was shortened from 40 min to 20 min. Isolated ganglion cells were identified on the basis of their morphological appearance and the presence of a large voltage-gated sodium current. Whole-cell patch-clamp techniques similar to those described (Ramsey et al. (2007)) were used to record membrane current responses to test agents. The patch pipette with a resistance of 8-12 MΩ was pulled in two stages using a micro-electrode puller (Model PP830, Narishige Group, Tokyo, Japan). The pipette was filled with an intracellular solution containing 95 mM CsCH3SO3, 20 mM TEA-Cl, 10 mM glutamic acid, 1 mM BAPTA, 10 mM HEPES, 8 mM phosphocreatine di(tris), 1 mM MgATP and 0.2 mM Na2GTP; pH adjusted to 7.2 with CsOH. Cells were clamped at 0 mV (Axopatch 200B amplifier; Axon Instruments), and experimental runs were controlled by pCLAMP system software (Axon Instruments). Electrophysiological data were obtained in response to test compounds dissolved in physiological saline (Ringer solution) that consisted of 135 mM NaCl, 5 mM KCl, 2 mM CaCl2, 2 mM MgCl2, 10 mM glucose, and 5 mM HEPES, pH 7.4. Supplementation of aqueous test solutions with MPC088 was carried out by adding an aliquot of a stock solution containing the compound dissolved in dimethyl sulfoxide (DMSO). In all experiments, the amount of carrier DMSO present in the applied test solution was <1% (v/v). Test solutions were delivered from separate reservoirs by a multi-channel perfusion system. The same UV-LED used in the oocyte experiments was used for UV illumination of MPC088-supplemented test solutions. For preparation of cis-dominant MPC088, the test solution of initially trans-dominant compound underwent a 5-min UV illumination prior to its placement in the perfusion reservoir. All preparative procedures were performed in the dark, and the reservoirs and perfusion lines were light-protected with aluminum foil. As in the oocyte experiments, data were analyzed with Clampfit and plotted with Origin. Unless otherwise stated, numerical data from replicate experiments are presented as mean±SD, and all statistical analyses of data obtained from oocytes and from retinal ganglion cells employed a two-sample t-test.

[2] = molecular target: T1, GABAAR subtype that consists of a pentameric assembly of p1 subunits (Homo sapiens, UniProt P24046); assay: Oocytes expressing the GABAAR subtype of p1 subunits; assay type: cell-based
T1 construct: expressed in transfected cells; host or cells: Xenopus oocytes

α1β3(N265M)γ2 GABAARs = molecular target: T2, α1β3(N265M)γ2 GABAARs (UniProt P28472+P62813, N290M); assay: Two-electrode voltage clamp of α1β3(N265M)γ2 GABAAR-expressing oocytes; assay type: cell-based; conditions: 1 μM trans-MPC088 with 3 μM GABA (~EC2)
T2 construct: expressed in transfected cells; host or cells: Xenopus oocytes
Procedure: The activity of trans-dominant MPC088 was also tested at receptors containing the β-subunit substitution N265M, a mutation that markedly reduces the action of propofol both in vitro and in vivo (Jurd et al. (2003); Siegwart et al. (2002)). […] For each receptor type, illustrated responses are representative data obtained from a single oocyte.

[3] = system: GABAARs of cerebellar PNs; assay: Test for direct agonist activity on Purkinje neurons (recirculating MPC088, no exogenous GABA); assay type: cell-based, mouse
Procedure: To test for direct agonist activity of MPC088 on PNs, cerebellar slices were perfused with recirculating 30 μM MPC088 (the maximal MPC088 concentration that could be reliably maintained solubilized in bicarbonate-buffered solution). MPC088 was converted to cis-dominant form by a 2-min exposure to UV light (LED, 365 nm/160 mW, Mouser, Inc., Mansfield, Tex.; LED driver, 700 mA BuckPuck DC Driver, Quadica Developments, Inc., Brantford, Ontario, Canada), before its dilution into the recirculating external solution. The same LED was then used to continuously UV-illuminate the recirculating solution for the duration of the experiment. Whole-cell voltage clamp recordings were obtained from PNs and determined the change in membrane current produced by alternating blue and UV illumination of the slice, as in the FIG. 40 experiments. […] The temporal sequence of illumination differed among the experiments (e.g., only the cell in a received multiple blue/UV exposures), but the data plotted are the amplitudes from the blue to UV transition (in the case of the cell in a, this is the blue/UV transition from the first of the three exposures). Yellow-filled data points indicate results from the experiment in a. Each data point is the average obtained from 4-10 consecutive recordings. […] Error bars represent the SEM (FIG. 42b).

α4β3δ GABAAR = molecular target: T3, α4β3δ GABAAR (Homo sapiens, UniProt P28472+P48169); assay: Two-electrode voltage clamp of α4β3δ GABAAR-expressing oocytes; assay type: cell-based
T3 construct: expressed in transfected cells; host or cells: Xenopus oocytes
From the text: Propofol is known to modulate GABAA receptors that contain a β subunit. […] Data in each group was obtained from 4 oocytes.

CC(C)c1cc(CCCC(=O)NCc2ccc(/N=N/c3ccc(C(=O)NCCN)cc3)cc2)cc(C(C)C)c1O [MPC088, (E)-N-(2-Aminoethyl)-4-((4-((4-(4-hydroxy-3,5-diisopropylphenyl)butanamido)methyl)phenyl)diazenyl)benzamide]
potentiation of the response elicited by 2 μM GABA ([1]; 10 μM trans-dominant): approximately 5 fold
peak amplitude of direct response relative to response to 200 μM GABA ([1]; 30 μM trans-dominant): 5%
peak amplitude of direct response relative to response to 200 μM GABA ([1]; 60 μM trans-dominant): 43±9%
reduction of agonist activity by UV pre-treatment ([1]; 60 μM, UV pre-treated (cis-dominant) vs trans-dominant): 88±6%
potentiating and direct agonist activity [2]: lacked both potentiating and direct agonist activity
response enhancement (α1β3(N265M)γ2 GABAARs): 2.9±0.8 fold
average light-evoked current change ([3]; 30 μM recirculating, blue/UV illumination, subset of 28 of 44 cells with change >18 pA): 80±13 pA
mode of action in cerebellar tissue ([3]; concentrations comparable to or lower than 30 μM): modulatory (endogenous GABA-dependent) rather than agonistic
plateau of response function relative to response with high GABA concentration (α4β3δ GABAAR; co-applied 50 nM GABA (~EC8)): ~42%
direct agonist activity (α4β3δ GABAAR; compound alone): much lower than those at α1β3γ2 and α1β2γ2
